Assay in all cases: iSPP profiling, P. falciparum lysate
Holding throughout (assay type): binding, Plasmodium falciparum

Test [1] deals with Uncharacterized protein (W7JQ86). On the procedure: (§1) P. falciparum NF54 lysates were extracted as described in ^[26^] . The parasite asynchronous culture was extracted once 3-5% parasitemia was reached. Saponin lysis was done as described in 2.2.10. Once the parasite pellet was obtained, 2.5 volumes of ice-cold lysis buffer (50 mM Tris/HCl pH 7.5 (Avantor), 5% glycerol (Sigma-Aldrich), 150 mM NaCl (Carl Roth), 1.5 mM MgCl2 (Sigma-Aldrich), 1 mM DTT (Carl Roth), 0.8% IGEPAL CA-630 (Sigma-Aldrich), 1X Halt Protease and Phosphatase Inhibitor-Cocktails EDTA-free (Thermo Fisher Scientific)) was added to the parasite pellet. The lysate solution was subjected to three cycles of flash freeze-thaw with liquid nitrogen and ddH2O at RT. The lysates were centrifuged at 20,000 g for 20 minutes at 4 °C. The soluble protein fraction (supernatant) was collected and the protein content was quantified using the BCA assay (Pierce™ BCA Protein Assay Kit, Thermo Fisher Scientific). The lysate was stored at -80 °C until further use.
(§2) The P. falciparum lysate was thawed on ice and diluted to 0.8 mg/mL. The lysate was aliquoted, and each aliquot was incubated with either a vehicle control (DMSO), 34 (dissolved in DMSO), or varying concentrations of 31 (dissolved in DMSO) at 0.01 µM, 0.1 µM, 10 µM, 50 µM, and 100 µM. Subsequently, the samples were incubated at room temperature for 30 minutes using a rotating mixer. After distribution into a 96-well plate, the samples were treated with increasing concentrations of A.E.A. (v/v) ranging from 14% to 28% (14, 16, 18, 20, 22, 24, 26, and 28%). Following a 20-minute incubation at 37°C with shaking at 750 rpm, the samples were centrifuged at 4400 g for 35 minutes to remove precipitated proteins. The soluble fractions were then pooled in equal volumes into a single sample using the Bravo Automated Liquid Handling Platform. The pooled samples were subsequently prepared for LC-MS/MS analysis.
(§3) The raw LFQ-DIA intensity values of biological replicates across all conditions were normalized to the median abundance using Excel. The normalized values were then log2 transformed in Perseus (v2.0.10.0).^[58^] Missing values were imputed from a normal distribution (width 0.3, down shift 1.5), and p-values were obtained using a two-sample t-test over replicates with a permutation-based false discovery rate correction (FDR 0.05). Volcano plots were generated in RStudio using the EnhancedVolcano package (v. 1.20.0), ^[59^] plotting proteins by statistical significance (y-axis: –Log10 p-value) versus the magnitude of change (x-axis: log2 fold change of protein intensities for each compound condition relative to the vehicle control). The heatmap was generated in Perseus (v2.0.10.0). Dose-dependent curves were generated using normalized protein intensity values, expressed as a ratio to the vehicle control. Plots were created in GraphPad Prism (v8.3.0) using a nonlinear regression model.

Test [2] has as its system 2-C-methyl-D-erythritol 4-phosphate cytidylyltransferase (W7KNE8). Conditions: 100 µM compound 34. On the procedure: as §1, §2, §3
A further test concerns Antigen UB05 (W7JRY1). The following applies: 100 µM compound 34. On the procedure: as §1, §2, §3
Test [3] has as its system DNA repair and recombination protein RAD54 (W7K6H8). Conditions: 100 µM compound 34. Here is the method: as §1, §2, §3
In test [4] the test system is Dual specificity protein phosphatase (W7KAW5). The following applies: 100 µM compound 34. On the procedure:
as §1, §2, §3

Test [5] relates to Erythrocyte membrane protein 1 (W7JQ66;W7K7Z8;W7KA08;W7KI56;W7KJ57). The following applies: 100 µM compound 34. Here is the method: as §1, §2, §3
The subject of test [6] is PCI domain-containing protein (W7JUC8). Conditions: 100 µM compound 34. Here is the method: as §1, §2, §3
Test [7] relates to Plasmodium RESA N-terminal domain-containing protein (W7KFM4). Conditions: 100 µM compound 34. On the procedure:
as §1, §2, §3

Test [8] concerns Protein RFT1 homolog (W7JM37). Conditions: 100 µM compound 34. Here is the method:
as §1, §2, §3

In the next test the test system is SPATR (W7KAV2). Conditions: 100 µM compound 34. On the procedure: as §1, §2, §3
For test [9], the system named is Ubiquitin-like protein nedd8-like (W7JPX7). The following applies: 100 µM compound 34. On the procedure: as §1, §2, §3
Test [10] deals with Uncharacterized protein (W7JSC9). The following applies: 100 µM compound 34. On the procedure:
as §1, §2, §3

Test [11] relates to Uncharacterized protein (W7KAK7). The following applies: 100 µM compound 34. Here is the method: as §1, §2, §3
Test [12] has as its system Uncharacterized protein (W7KAL3). Conditions: 100 µM compound 34. Here is the method: as §1, §2, §3
The test system of test [13] is Uncharacterized protein (W7KBT1). Conditions: 100 µM compound 34. On the procedure: as §1, §2, §3
Test [14] relates to Uncharacterized protein (W7KMZ2). The following applies: 100 µM compound 34. On the procedure:
as §1, §2, §3

Test [15] relates to WD repeat-containing protein 82 (W7K1H5). The following applies: 100 µM compound 34. On the procedure: as §1, §2, §3

On to `CN1CCN(Cc2ccc(O)c(NC(=O)c3cccc(Oc4cc(C(F)(F)F)ccn4)c3)c2)CC1` [Compound 31, N-(2-hydroxy-5-((4-methylpiperazin-1-yl)methyl)phenyl)-3-((4-(trifluoromethyl)pyridin-2-yl)oxy)benzamide], for which the log2FC in test [1] (10 µM) turned out to be 0.49; in test [1] (50 µM) it was 0.58; in test [1] (100 µM), 0.37; in test [1] (10^-2 µM), 0.40; in test [1] (10^-3 µM), 0.28.

On to `O=C(Nc1cc(CN2CCOCC2)ccc1F)c1cccc(Oc2cc(C(F)(F)F)ccn2)c1` [Compound 34, N-(2-Fluoro-5-(morpholinomethyl)phenyl)-3-((4-(trifluoromethyl)pyridin-2-yl)oxy)benzamide], for which the log2FC in [2] is -1.336; with Antigen UB05 (W7JRY1), 0.5651; in [3], -0.7564; in [4] it was -0.5678; in test [5] it was 0.3804; in test [6], -0.3885. In addition, the log2FC in test [7] is 0.3623; in test [8] it was -0.6689; in the test on SPATR (W7KAV2) it was 0.3835; in [9], 0.3658; in test [10], 0.457; in test [11] it was -0.4093. Further, the log2FC in test [12] was -0.4853; in [13], 0.318; in test [14], 0.3762; in test [15], -0.6516.

For the origin of these results see PMC12668308, “A Novel Antimalarial Agent that Inhibits Protein Synthesis in Plasmodium falciparum” (Angewandte Chemie (International Ed. in English), 2025).
